Measured values taken from publication PMC8659060, “Neuroprotective Potential of Synthetic Mono-Carbonyl Curcumin Analogs Assessed by Molecular Docking Studies” (Molecules, 2021).
Read-outs that look alike come from different tables or passages of the source.

Columns and labels:
[1] = tested on: scopolamine-induced memory impairment in mice; assay: Novel object recognition test (NORT), scopolamine-induced memory impairment; type: in vivo, Balb/C mice; details: for % DI in exploring the novel object versus scopolamine-treated group (in words): long-term memory, donepezil 2 mg/kg; for % DI in exploring the novel object versus scopolamine-treated group (in words) / Exploration time for the novel object in the test phase (in words): h compounds 7.5 and 15 mg/kg; for % DI versus scopolamine-treated group (in words): 7.5 and 15 mg/kg p.o.; for Exploration time for the novel object in the test phase (in words): DZP 2 mg/kg
Protocol: (§1) Balb/C mice iwth a weight of (17–23 gm) were procured from the NIH (National Institute of Health), Islamabad, which were kept for breeding under favorable conditions in the animal house of the Pharmacy Department, Shaheed Benazir Bhutto University Sheringal Dir (Upper). Light/dark cycle of about 12 h each was maintained, with relative humidity of 50–55% at 22–25 °C. This work was conducted with approval from the Departmental Ethical Committee (SBBU/IEC-20-02) of the Scientific Procedure Issue-I of the University of Malakand in compliance with provision of the 2008 Animal Byelaws.
(§2) Mice were divided into thirteen groups with 6 mice in each group.
(§3) Group I. Normal control group (vehicle treated) received 10 mL/kg (i.p.) normal saline.
(§4) Group IV–XIII. Sample (curcumin analog)-treated groups. Synthesized curcumin analogs were administered in doses of 7.5 mg/kg and 15 mg/kg (p.o.), respectively.
(§5) The groups were kept for 7 days at various treatments doses.
The synthesized curcumin analogs were tested for possible memory enhancement potential by using novel object recognition test apparatus, which was designed using plexi glass with dimension of 40 cm × 40 cm × 30 cm. The mice, after acclimatization period, were allowed to move for 2–3 min one day before the test for habituation. In the two corners of the NORT apparatus, two identical objects were placed on the test day in the sample phase (T1), and the object exploration time was recorded. The objects were regarded as being explored when the mice touched the objects or directed their nose toward the object at a distance of less than 2 cm, […], the test phase (T2) was started, in which one of the familiar objects was replaced with a novel (new) object. Mice again freely explored the objects in similar manner to that in T1, and the exploration time for the novel (new) object and the familiar (F) object were noted separately. The DI (discrimination index) was measured using the following formula: DI=N−F/N+F

[2] = tested on: scopolamine-induced amnesia in mice; assay: Elevated plus maze (EPM), scopolamine-induced amnesia; type: in vivo, Balb/C mice; details: then scopolamine 1 mg/kg i.p., mean ± SEM, n = 6
Protocol: as §1, §2, §3, §4, §5
The EPM consisted of two open arms and two closed arms with dimensions of 16 cm × 5 cm × 12 cm, and was made from two poly acrylic sheets and designed as a plus sign with a central platform with dimensions of 5 cm × 5 cm, which was elevated 25 cm from the floor on a wooden stand. Mice were placed in the open arm in such a position that their direction was facing away from the central platform; then, the transfer latency time (TLT) was noted when the mice moved to the closed arm with its four legs from the open arm and then returned to their home cage. […] The following formula was used for calculation of inflexion ratio (IR). IR=L0−L1/L0 where L1 = initial transfer latency (s) and L0 = retention transfer latency (s).

BChE = molecular target: T1, BChE (Equus caballus, UniProt P81908); assay: biochemical; details: for inhibition at 62.5 µg/mL / inhibition at 125 µg/mL / inhibition at 250 µg/mL / inhibition at 500 µg/mL / inhibition at 1000 µg/mL: read-out: BChE percent enzyme inhibition, Mean ± SEM
T1 construct: obtaining AChE and BChE enzymes from electric eel and equine serum, respectively; from tissue; host or cells: equine serum
T1 sequence (P81908 whole entry): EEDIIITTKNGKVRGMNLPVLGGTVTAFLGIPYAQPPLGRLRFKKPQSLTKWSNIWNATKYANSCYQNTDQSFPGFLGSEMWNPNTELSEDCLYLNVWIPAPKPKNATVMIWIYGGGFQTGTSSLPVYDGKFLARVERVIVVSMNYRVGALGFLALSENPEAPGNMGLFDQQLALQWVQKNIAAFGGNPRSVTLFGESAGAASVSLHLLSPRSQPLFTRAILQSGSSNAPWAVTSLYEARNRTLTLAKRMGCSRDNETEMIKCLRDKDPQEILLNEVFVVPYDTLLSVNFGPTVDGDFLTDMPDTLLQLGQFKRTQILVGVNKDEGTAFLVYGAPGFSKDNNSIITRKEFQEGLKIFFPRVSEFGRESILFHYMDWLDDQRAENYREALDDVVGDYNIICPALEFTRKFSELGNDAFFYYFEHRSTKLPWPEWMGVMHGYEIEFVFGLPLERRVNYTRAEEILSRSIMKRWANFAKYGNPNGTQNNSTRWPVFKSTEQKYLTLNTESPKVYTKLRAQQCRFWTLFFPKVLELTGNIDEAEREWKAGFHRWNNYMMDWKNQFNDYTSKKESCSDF
Protocol: (§6) Evaluation of anticholinesterase activity of the synthesized compounds was performed according to Ellman’s method and was determined by obtaining AChE and BChE enzymes from electric eel and equine serum, respectively. DMSO was used for the dissolution of test samples (1 mg/mL), which were diluted in phosphate buffer (0.1 M) to concentrations from 1000 to 62.5 µg/mL. Phosphate buffer in 0.1 M, pH 8.0 was used for the dilution of 518 U/mg AChE and 7–16 U/mg BChE to obtain final concentrations of 0.03 U/mL and 0.01 U/mL for AChE and BChE, respectively. Substrate solutions of 0.5 mM ATchI, 0.2273 mM DTNB and 0.5 mM BTchI in distilled water were made and maintained separately in Eppendorf tubes at 8 °C in a refrigerator. The assay was started by adding 5 µL enzyme solution to a cuvette, then adding 205 µL test sample followed by 5 µL DTNB reagent. A 5 µL volume of substrate solution was added, and the solution mixture was maintained for 15 min in water bath at 30 °C. A spectrophotometer was used to measure absorbance at 412 nm at 30 °C with a reaction time of 4 min. […] The following formula was used for calculation of % enzyme inhibition.

AChE = molecular target: T2, AChE (Electrophorus electricus, UniProt O42275); assay: biochemical; details: for inhibition at 62.5 µg/mL / inhibition at 125 µg/mL / inhibition at 250 µg/mL / inhibition at 500 µg/mL / inhibition at 1000 µg/mL: read-out: AChE percent enzyme inhibition, Mean ± SEM
T2 construct: obtaining AChE and BChE enzymes from electric eel and equine serum, respectively; from tissue; host or cells: electric eel
T2 sequence (O42275 24-633): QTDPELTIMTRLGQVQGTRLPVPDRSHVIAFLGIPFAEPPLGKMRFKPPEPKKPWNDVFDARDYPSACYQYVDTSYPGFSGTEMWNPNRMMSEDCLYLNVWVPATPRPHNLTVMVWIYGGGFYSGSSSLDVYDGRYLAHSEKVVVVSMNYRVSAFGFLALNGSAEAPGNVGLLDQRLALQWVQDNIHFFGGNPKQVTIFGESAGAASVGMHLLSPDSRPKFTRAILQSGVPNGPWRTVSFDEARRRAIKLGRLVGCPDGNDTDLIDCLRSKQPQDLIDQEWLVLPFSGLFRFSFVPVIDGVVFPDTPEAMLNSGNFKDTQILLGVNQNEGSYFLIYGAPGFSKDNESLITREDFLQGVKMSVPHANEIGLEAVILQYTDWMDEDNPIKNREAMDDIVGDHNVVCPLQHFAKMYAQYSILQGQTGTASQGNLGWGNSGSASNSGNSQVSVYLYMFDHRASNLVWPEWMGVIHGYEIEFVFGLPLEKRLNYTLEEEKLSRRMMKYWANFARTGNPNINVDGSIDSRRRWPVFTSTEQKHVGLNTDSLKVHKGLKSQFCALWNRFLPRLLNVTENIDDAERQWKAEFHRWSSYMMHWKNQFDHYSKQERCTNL
Protocol: as §6

[3] = tested on: T3, BChE in the hippocampus region of mouse brain; type: in vivo; details: pretreatment, then scopolamine, n = 6
T3 construct: from tissue; host or cells: mouse brain hippocampus (supernatant of homogenate)
Protocol: as §5
(§7) The mice were sacrificed immediately after the behavioral study by cervical dislocation to provide quick and painless death to each animal before decapitation. Brain of each animal was excised in phosphate buffer saline (chilled) and incorporated into biochemical biomarker analysis.
(§8) Cholinesterase (AChE and BChE) levels were determined in the excised brain hippocampus using Ellman’s method with slight modification. Supernatant (0.4 mL), 0.1 M/L, pH 8 phosphate buffer (2.6 mL), and 100 µL of DTNB (5,5′-dithiobis-2-nitrobenzoic acid) and were added into cuvette and mixed. Spectrophotometer at 412 nm was run and absorbance was measured several times, then […] acetyl thiocholine iodide/butyrylthiocholine chloride was mixed into the reaction as substrate at an interval of 2 min, and variation in absorbance was noted and the changes in absorbance per min were recorded. The following formula was used for calculation of cholinesterase level: R = 5.74 × 10^−4 × A/CO where ‘R’ is the moles (rate) of substrate hydrolyzed/min/mg of protein, (A) is the change in absorbance/min, and ‘CO’ is concentration (20 mg/mL) of protein.

[4] = tested on: T4, AChE in the hippocampus region of mouse brain; type: in vivo; details: pretreatment, then scopolamine, n = 6
T4 construct: from tissue; host or cells: mouse brain hippocampus (supernatant of homogenate)
Protocol: as §5, §7, §8

[5] = Ellman's method, 1000 to 62.5 μg/mL, n = 3, read-out: BChEI (IC50) (converted)
[6] = Ellman's method, 1000 to 62.5 μg/mL, n = 3, read-out: AChEI (IC50) (converted)

Structure (SMILES)	% DI in exploring the novel object versus scopolamine-treated group (in words) [1]	% DI versus scopolamine-treated group (in words) ([1]; short-term memory)	Retention (transfer latency time, TLT) ([2]; 7.5 mg/kg p.o. for 7 days) [s]	Retention (transfer latency time, TLT) ([2]; 15 mg/kg p.o. for 7 days) [s]	Reversal of scopolamine-increased hippocampus BChE level (in words) [3]	Reversal of scopolamine-increased hippocampus AChE level (in words) [4]	Exploration time for the novel object in the test phase (in words) ([1]; short-term memory)	inhibition at 62.5 µg/mL (BChE; 62.5 µg/mL) [%]	inhibition at 125 µg/mL (BChE; 125 µg/mL) [%]	inhibition at 250 µg/mL (BChE; 250 µg/mL) [%]	inhibition at 500 µg/mL (BChE; 500 µg/mL) [%]	inhibition at 1000 µg/mL (BChE; 1000 µg/mL) [%]	IC50 (BChE; [5]) [µM]	inhibition at 62.5 µg/mL (AChE; 62.5 µg/mL) [%]	inhibition at 125 µg/mL (AChE; 125 µg/mL) [%]	inhibition at 250 µg/mL (AChE; 250 µg/mL) [%]	inhibition at 500 µg/mL (AChE; 500 µg/mL) [%]	inhibition at 1000 µg/mL (AChE; 1000 µg/mL) [%]	IC50 (AChE; [6]) [µM]	other results
O=C(/C=C/c1ccc([N+](=O)[O-])cc1)/C=C/c1ccc([N+](=O)[O-])cc1 [h5, (1E,4E)-1,5-bis(4-Nitrophenyl)penta-1,4-dien-3-one]	no promising results	no promising results	34.71 ± 1.37	31.51 ± 1.54	no promising results	no prominent	–	–	–	–	–	–	–	–	–	–	–	–	–	IC50 (BChE): 3050 µM; inhibition at 62.5 µg/mL (BChE): 16.2 ± 0.83%; inhibition at 125 µg/mL (BChE): 20.3 ± 0.31%; inhibition at 250 µg/mL (BChE): 32.73 ± 0.01%; inhibition at 500 µg/mL (BChE): 43.51 ± 0.13%; inhibition at 1000 µg/mL (BChE): 51.82 ± 0.16%; IC50 (AChE): 1950 µM; inhibition at 62.5 µg/mL (AChE): 26.45 ± 0.18%; inhibition at 125 µg/mL (AChE): 35.51 ± 0.06%; inhibition at 250 µg/mL (AChE): 41.27 ± 0.04%; inhibition at 500 µg/mL (AChE): 47.33 ± 0.16%; inhibition at 1000 µg/mL (AChE): 58.41 ± 0.13%
COc1ccc2c3c1O[C@H]1C[C@@H](O)C=C[C@@]31CCN(C)C2 [Galanthamine, reference compound]	–	–	–	–	–	–	–	–	–	–	–	–	–	–	–	–	–	–	–	inhibition at 62.5 µg/mL (BChE): 61.35 ± 0.18%; inhibition at 125 µg/mL (BChE): 66.2 ± 0.15%; inhibition at 250 µg/mL (BChE): 73.42 ± 0.11%; inhibition at 500 µg/mL (BChE): 78.62 ± 0.17%
COc1cc2c(cc1OC)C(=O)C(CC1CCN(Cc3ccccc3)CC1)C2 (stereo not drawn) [Donepezil, reference compound]	significant increase	–	–	–	–	–	significantly higher exploration times	–	–	–	–	–	–	–	–	–	–	–	–	Exploration time for the novel object ([1]; short-term memory, test phase, 2 mg/kg p.o. + scopolamine 1 mg/kg i.p.): 21.59 ± 2.44 s; Retention (transfer latency time, TLT) ([2]; 2 mg/kg p.o. for 7 days): 25.57 ± 1.93 s; Retention (transfer latency time, TLT) ([2]; 2 mg/kg p.o. for 7 days, listed as donepezil): 25.57 ± 1.93 s
COc1ccc(/C=C/C(=O)/C=C/c2ccc(OC)cc2)cc1 [h2, (1E,4E)-1,5-bis(4-Methoxyphenyl)penta-1,4-dien-3-one]	significant increase	–	31.51 ± 2.73	25.32 ± 2.42	significantly reversed	reversed	significantly more time exploring the novel object	41.82 ± 0.18	48.61 ± 0.15	57.22 ± 0.01	64.38 ± 0.06	69.77 ± 0.03	503	46.88 ± 0.15	53.57 ± 0.17	61.21 ± 0.18	73.79 ± 0.12	76.23 ± 0.15	317	–
O=C(/C=C/c1ccc(Cl)cc1)/C=C/c1ccc(Cl)cc1 [h3, (1E,4E)-1,5-bis(4-Chlorophenyl)penta-1,4-dien-3-one]	significant increase	–	25.26 ± 2.51	21.27 ± 2.92	significantly reversed	reversed	significantly more time exploring the novel object	49.25 ± 0.02	58.33 ± 0.13	62.41 ± 0.19	69.52 ± 0.12	78.72 ± 0.16	222	53.53 ± 0.12	62.44 ± 0.16	69.51 ± 0.13	77.25 ± 0.11	83.31 ± 0.13	96.9	–
Cc1ccc(/C=C/C(=O)/C=C/c2ccc(C)cc2)cc1 [h1, (1E,4E)-1,5-Di-p-tolylpenta-1,4-dien-3-one]	significant increase	comparable values	33.13 ± 2.16	26.18 ± 2.32	no promising results	no prominent	–	37.16 ± 0.12	46.25 ± 0.13	51.91 ± 0.14	56.42 ± 0.16	62.16 ± 0.04	927	45.63 ± 0.13	54.34 ± 0.17	58.12 ± 0.16	68.07 ± 0.18	79.67 ± 0.21	399	–
CN(C)c1ccc(/C=C/C(=O)/C=C/c2ccc(N(C)C)cc2)cc1 [h4, (1E,4E)-1,5-bis(4-(Dimethylamino)phenyl)penta-1,4-dien-3-one]	no promising results	comparable values	35.71 ± 1.13	30.42 ± 1.24	no promising results	no prominent	–	27.16 ± 0.11	35.33 ± 0.19	42.62 ± 0.12	49.51 ± 0.16	56.32 ± 0.18	1600	31.41 ± 0.13	39.45 ± 0.04	46.32 ± 0.15	58.16 ± 0.11	63.51 ± 0.17	920	–
